In ChEMBL document CHEMBL5550209, “Hit-to-Lead Optimization of Heterocyclic Carbonyloxycarboximidamides as Selective Antagonists at Human Adenosine A3 Receptor” (J Med Chem, 2024):

Assay: Plasma protein binding in human at 10 uM measured upto 24 hrs by equilibrium dialysis method

For `CN[C@H]1CC[C@@H](c2ccc(Cl)c(Cl)c2)c2ccccc21` [SERTRALINE], the fraction unbound at 24 h, 10 µM was 0.01.
